Here are results for 17 compounds from EP3917907B1, “MODULATORS OF POTASSIUM ION CHANNELS AND USES THEREOF” (Universitá Degli Studi Di Salerno, priority 2019, dated 2020).

Structures are written as SMILES.

One data set has as its target T1, Kv7.2 (Homo sapiens, UniProt O43526).
T1 construct: expressed in transfected cells; host or cells: CHO cells (ATCC CRL-9618), transient transfection, pcDNA3.1(+)
Put plainly: Whole-cell patch-clamp on CHO cells transiently expressing Kv7.2. Format: cell-based. To be noted: CHO cells, mean±SEM, >1 activating, <1 inhibiting; for Idrug/Ictl at 0 mV: ratio of ramp-evoked Kv7.2 current amplitude in presence and absence of drug at 0 mV; for Idrug/Ictl at -40 mV: ratio of ramp-evoked Kv7.2 current amplitude in presence and absence of drug at -40 mV. The protocol:
According to the experimental protocol, these plasmids were expressed individually or in combination (in particular of Kv7.2 and Kv7.3), together with a plasmid-expressing enhanced green fluorescent protein (Clontech, Palo Alto, CA) used as a transfection marker. Total cDNA in the transfection mixture was kept at 4 µg. CHO cells were grown in 100-mm plastic Petri dishes in Dulbecco's modified Eagle's medium containing 10% fetal bovine serum, nonessential amino acids (0.1 mM), penicillin (50 U/ml), and streptomycin ([…]) in a humidified atmosphere at 37°C with 5% CO2. The cells were plated on glass coverslips coated with poly-L-lysine, and transfected one day after plating with the appropriate cDNA using Lipofectamine 2000 (Life Technologies), according to the manufacturer's protocol.
Currents from CHO cells were recorded at room temperature (20-22°C) 24 hours after trasfection using the whole-cell configuration of the patch-clamp technique, with glass micropipettes of 3-5 MΩ resistance. During the recording, constant perfusion of extracellular solution was maintained. The extracellular solution contained (in mM): 138 NaCl, 2 CaCl2, 5.4 KCl, 1 MgCl2, 10 glucose, and 10 HEPES, at pH 7.4, adjusted with NaOH. The pipette (intracellular) solution contained (in mM): 140 KCl, 2 MgCl2, 10 EGTA, 10 HEPES, 5 Mg^2+-ATP, at pH 7.3-7.4, adjusted with KOH. Currents were recorded using an Axopatch-200A amplifier, filtered at 5 kHz, and digitized using a DigiData 1440A (Molecular Devices). The pCLAMP software (version 10.2, Molecular Devices) was used for data acquisition and analysis. To evaluate the activity of exemplary compounds on Kv7.2 (see Table 1), as well as on Kv7.1, Kv7.2/7.3, Kv7.3 and Kv7.4 channels for selected compounds (see Table 2), the cells were clamped at -80 mV and currents were elicited by 3-s voltage ramps from -80 mV to +20 mV in the presence and absence of each compound. […] The effects of drugs were expressed as shift in the ramp-voltage (ΔV) calculated at 20% of the maximal current (Miceli et al, Proc Natl Acad Sci U S A. 2013, 110(11):4386-91). Curves were fitted using the following equation: y=max/(1+x/EC50)n, where x is the drug concentration, n is the Hill coefficient and max is the maximal value achieved, as previously described (Ambrosino et al, Br J Pharmacol. 2013, 168(6):1430-1444). Data analysis and fit were performed using Sigmaplot (version 12.3).
Ramp-evoked Kv7.2 currents were analyzed by measuring the currents at -40 mV (a membrane potential value close to the activation threshold) and at 0 mV (a membrane potential value at which Kv7.2 conductance is largely saturated). In particular, -40 mV represents the threshold potential for spike initiation and 0 mV represents instead the membrane potential value at which maximal conductance of the channel is achieved.
In Table 1, the effect of exemplary compounds of the invention is expressed as the ratio between current amplitude in the presence (Idrug) and absence (Ictl) of the drug at these two membrane voltages. […]
Background: In patch-clamp work, channel activity is measured electrically.

Data set [1] in a line: Solution stability (HPLC, extracellular solution, ambient temperature). In kind it is physicochemical. To be noted: percentage of degradation after 6 h at ambient temperature; 100 ppm in extracellular solution pH 7.4. The procedure: (§1) In order to study the solution stability and photostability of the potassium channel modulators object of the present invention, a stock solution of the proper analyte (1 mg/mL) in dimethylsulfoxide (DMSO) has been prepared. This solution has been then diluted to a concentration of 100 ppm using extracellular solution containing (in mM): 138 NaCl, 2 CaCl2, 5.4 KCl, 1 MgCl2, 10 glucose, and 10 HEPES, at pH 7.4, adjusted with NaOH. To measure solution stability, the diluted solutions have been maintained at ambient temperature for 6 h. To measure photostability, the diluted solutions have been irradiated for 6 h using a Oriel Sol3A Solar Simulator (Newport corporation, Irvine, CA, USA) with a 12x12 inches output beam. Aliquots of solution have been withdrawn after 6h and analyzed by HPLC using a Kinetex C18, 150 mm × 4.6 mm × 2.6 µm (Phenomenex, Bologna, Italy) as stationary phase and a mobile phase constituted by A: H2O/CH3CN (80:20) and B: CH3CN. Gradient elution has been performed from 20% to 90% of B in 7.50 minutes and from 90% to 20% of B in 1 minute. The pump flux has been set to 1.5 mL/min. Column has been thermostatted at 40°C during analysis. Results are espressed in Table 3 as percentage of degradation of the product calculated as ratio between the peak area of the analyte at time 0 (Pa0) and after 6h (Pa6) using the following formula: % degradation = (Pa0−Pa6)/Pa0 *100. [formula]

The nature of data set [2]: Photostability (HPLC, solar simulator irradiation). Format: physicochemical. To be noted: percentage of degradation after 6 h irradiation with solar simulator; 100 ppm in extracellular solution pH 7.4. The protocol:
as §1

In the case of `CC(C)(C)CNC(=N)Nc1ccc2c(c1)CCN2Cc1ccc(F)cc1` [1-(1-(4-fluorobenzyl)indolin-5-yl)-3-neopentylguanidine], on Kv7.2, the “Idrug/Ictl at 0 mV” value is on record as 0.84±0.09 and the “Idrug/Ictl at -40 mV” value was 0.98±0.09. Also, the Solution stability result in data set [1] is “A (degradation lower than 20%)”. Further, the Photostability result in data set [2] is “B (20%< degradation<40%)”.
The like results for `CC(C)(C)CNC(=O)Nc1ccc2c(c1)CCN2Cc1ccc(F)cc1` [1-(1-(4-fluorobenzyl)indolin-5-yl)-3-neopentylurea] were, in that order, 1.40±0.08, 3.31±0.61, “A (degradation lower than 20%)” and “A (degradation lower than 20%)”.
The like results for `CC1(C)[C@H]2CC[C@]1(CS(=O)(=O)Nc1ccc3c(c1)CCN3Cc1ccc(F)cc1)C(=O)C2` [1-((1R,4S)-7,7-dimethyl-2-oxobicyclo[2.2.1]heptan-1-yl)-N-(1-(4-fluorobenzyl)indolin-5-yl)methanesulfonamide] were, in that order, 1.16±0.07, 1.49±0.28, “C (degradation > 40%)” and “C (degradation > 40%)”.
The like results for `CC1(C)[C@@H]2CC[C@@]1(CS(=O)(=O)Nc1ccc3c(c1)CCN3Cc1ccc(F)cc1)C(=O)C2` [1-((1S,4R)-7,7-dimethyl-2-oxobicyclo[2.2.1]heptan-1-yl)-N-(1-(4-fluorobenzyl)indolin-5-yl)methanesulfonamide] were, in that order, 0.99±0.06, 1.12±0.05, “C (degradation > 40%)” and “C (degradation > 40%)”.
`O=C(Nc1ccc2c(c1)CCN2Cc1ccc(F)cc1)NC1CCCCC1` [1-cyclohexyl-3-(1-(4-fluorobenzyl)indolin-5-yl)urea]: on Kv7.2, the “Idrug/Ictl at 0 mV” value is given as 0.85±0.12 and the “Idrug/Ictl at -40 mV” value is on record as 0.95±0.16. In data set [1], the Solution stability result is listed as “A (degradation lower than 20%)”. Also, the Photostability entry in data set [2] was “B (20%< degradation<40%)”.
With `COCCOCC(=O)Nc1ccc2c(ccn2Cc2ccc(C(F)(F)F)cc2)c1` [2-(2-methoxyethoxy)-N-(1-(4-(trifluoromethyl)benzyl)-1H-indol-5-yl)acetamide], on Kv7.2, the “Idrug/Ictl at 0 mV” value came out at 0.86±0.01 and the “Idrug/Ictl at -40 mV” value was determined as 1.50±0.16. For the same compound, in data set [1], the Solution stability result is given as “A (degradation lower than 20%)”. Also, the Photostability entry in data set [2] is listed as “A (degradation lower than 20%)”.
With `O=S(=O)(CCC1CCCCC1)Nc1ccc2c(ccn2Cc2ccc(F)cc2)c1` [2-cyclohexyl-N-(1-(4-fluorobenzyl)-1H-indol-5-yl)ethane-1-sulfonamide], at Kv7.2, the “Idrug/Ictl at 0 mV” value stood at 1.18±0.09 and the “Idrug/Ictl at -40 mV” value was found to be 1.64±0.10. Moreover, the Solution stability result in data set [1] is listed as “A (degradation lower than 20%)”. Also, in data set [2], the Photostability result is “A (degradation lower than 20%)”.
As for `O=C(CC1CCCCC1)Nc1ccc2c(c1)CCN2Cc1ccc(F)cc1` [2-cyclohexyl-N-(1-(4-fluorobenzyl)indolin-5-yl)acetamide], on Kv7.2, the “Idrug/Ictl at 0 mV” value came to 1.71±0.12 and the “Idrug/Ictl at -40 mV” value came out at 2.37±0.40. In addition, in data set [1], the Solution stability entry is listed as “A (degradation lower than 20%)”. Further, the Photostability entry in data set [2] was “A (degradation lower than 20%)”.
Take `CC(C)(C)CC(=O)Nc1ccc2c(ccn2Cc2ccc(C(F)(F)F)cc2)c1` [3,3-dimethyl-N-(1-(4-(trifluoromethyl)benzyl)-1H-indol-5-yl)butanamide]: on Kv7.2, the “Idrug/Ictl at 0 mV” value is on record as 3.54±0.88 and the “Idrug/Ictl at -40 mV” value was 8.23±1.36. Also, in data set [1], the Solution stability entry was “A (degradation lower than 20%)”. The Photostability result in data set [2] is recorded as “A (degradation lower than 20%)”.
With `COCCOCCC(=O)Nc1ccc2c(ccn2Cc2ccc(C(F)(F)F)cc2)c1` [3-(2-methoxyethoxy)-N-(1-(4-(trifluoromethyl)benzyl)-1H-indol-5-yl)propanamide], on Kv7.2, the “Idrug/Ictl at 0 mV” value is recorded as 1.34±0.10 and the “Idrug/Ictl at -40 mV” value is given as 2.64±0.77. The Solution stability result in data set [1] was “A (degradation lower than 20%)”. Moreover, the Photostability entry in data set [2] is reported as “A (degradation lower than 20%)”.
With `CC(C)[C@H]1CC[C@H](C)C[C@@H]1OC(=O)Nc1ccc2c(c1)CCN2Cc1ccc(F)cc1` [(1S,2R,5S)-2-isopropyl-5-methylcyclohexyl (1-(4-fluorobenzyl)indolin-5-yl)carbamate], at Kv7.2, the “Idrug/Ictl at 0 mV” value is recorded as 0.48±0.07 and the “Idrug/Ictl at -40 mV” value is 0.80±0.14. Further, the Solution stability result in data set [1] is “A (degradation lower than 20%)”. Further, the Photostability result in data set [2] is recorded as “B (20%< degradation<40%)”.
The like results for `O=S(=O)(Nc1ccc2c(c1)CCN2Cc1ccc(C(F)(F)F)cc1C(F)(F)F)C1CCCCC1` [N-(1-(2,4-bis(trifluoromethyl)benzyl)indolin-5-yl)cyclohexanesulfonamide] were, in that order, 1.22±0.11, 1.53±0.39, “B (20%< degradation<40%)” and “C (degradation > 40%)”.
Consider `COc1ccc(CN(C)c2ccc(NS(=O)(=O)C3CCCCC3)cc2)cc1` [N-(4-((4-methoxybenzyl)(methyl)amino)phenyl) cyclohexanesulfonamide], for which the Solution stability entry in data set [1] is “B (20%< degradation<40%)”. Besides, in data set [2], the Photostability entry is “B (20%< degradation<40%)”.
Turning to `COc1ccc(CNc2ccc(NS(=O)(=O)C3CCCCC3)cc2)cc1` [N-(4-((4-methoxybenzyl)amino)phenyl) cyclohexanesulfonamide], the Solution stability result in data set [1] is recorded as “B (20%< degradation<40%)”. In data set [2], the Photostability result is recorded as “C (degradation > 40%)”.
`Cc1c(NS(=O)(=O)C2CCCCC2)ccc2c1ccn2Cc1ccc(C(F)(F)F)cc1` [N-(4-methyl-1-(4-(trifluoromethyl)benzyl)-1H-indol-5-yl)cyclohexanesulfonamide]: the Solution stability entry in data set [1] is given as “A (degradation lower than 20%)”. For the same compound, the Photostability result in data set [2] is listed as “B (20%< degradation<40%)”.
Taken in the same sequence, the figures for `O=S(=O)(Nc1cc(F)c2c(ccn2Cc2ccc(C(F)(F)F)cc2)c1)C1CCCCC1` [N-(7-fluoro-1-(4-(trifluoromethyl)benzyl)-1H-indol-5-yl) cyclohexanesulfonamide] were “A (degradation lower than 20%)” and “A (degradation lower than 20%)”.
Taken in the same sequence, the figures for `O=S(=O)(Nc1cc(F)c2c(c1)CCN2Cc1ccc(C(F)(F)F)cc1)C1CCCCC1` [N-(7-fluoro-1-(4-(trifluoromethyl)benzyl)indolin-5-yl) cyclohexanesulfonamide] were “B (20%< degradation<40%)” and “B (20%< degradation<40%)”.
